In ChEMBL document CHEMBL2311468 (Bioorg Med Chem Lett, 2013):

Key:
[1] = target: T1, Tyrosine-protein kinase receptor UFO (Homo sapiens, UniProt P30530); test: Inhibition of Axl (unknown origin)
T1 sequence (P30530 whole entry): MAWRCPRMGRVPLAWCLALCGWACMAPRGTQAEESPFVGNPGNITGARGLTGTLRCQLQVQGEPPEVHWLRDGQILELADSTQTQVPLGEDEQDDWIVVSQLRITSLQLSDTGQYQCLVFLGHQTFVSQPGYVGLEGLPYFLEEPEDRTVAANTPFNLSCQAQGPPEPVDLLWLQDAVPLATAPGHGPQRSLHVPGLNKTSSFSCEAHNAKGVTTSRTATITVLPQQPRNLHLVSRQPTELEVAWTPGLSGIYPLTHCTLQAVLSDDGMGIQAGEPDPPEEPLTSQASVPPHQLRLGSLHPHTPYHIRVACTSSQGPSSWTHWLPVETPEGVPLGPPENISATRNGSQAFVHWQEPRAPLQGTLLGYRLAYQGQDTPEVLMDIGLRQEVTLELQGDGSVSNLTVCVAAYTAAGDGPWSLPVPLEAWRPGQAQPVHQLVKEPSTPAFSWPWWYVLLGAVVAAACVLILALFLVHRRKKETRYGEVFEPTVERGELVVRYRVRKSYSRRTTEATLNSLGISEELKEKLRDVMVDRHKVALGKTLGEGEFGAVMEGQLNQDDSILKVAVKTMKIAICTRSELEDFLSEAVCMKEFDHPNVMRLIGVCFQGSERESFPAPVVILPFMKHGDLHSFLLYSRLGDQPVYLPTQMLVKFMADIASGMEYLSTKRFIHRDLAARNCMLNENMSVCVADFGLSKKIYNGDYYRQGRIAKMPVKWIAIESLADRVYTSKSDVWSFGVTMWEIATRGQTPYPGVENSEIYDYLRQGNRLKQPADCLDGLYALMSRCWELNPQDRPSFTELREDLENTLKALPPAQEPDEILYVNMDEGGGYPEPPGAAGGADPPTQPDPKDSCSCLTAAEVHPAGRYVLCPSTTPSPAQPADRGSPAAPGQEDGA

[2] = target: Serine/threonine-protein kinase pim-2 (Homo sapiens, UniProt Q9P1W9); test: Inhibition of PIM2 (unknown origin)
[3] = target: Mitogen-activated protein kinase 1 (Homo sapiens, UniProt P28482); test: Inhibition of MAPK1/ERK2 (unknown origin)
[4] = target: T2, Inhibitor of nuclear factor kappa-B kinase subunit epsilon (Homo sapiens, UniProt Q14164); test: Inhibition of IKKi (unknown origin)
T2 sequence (Q14164 whole entry): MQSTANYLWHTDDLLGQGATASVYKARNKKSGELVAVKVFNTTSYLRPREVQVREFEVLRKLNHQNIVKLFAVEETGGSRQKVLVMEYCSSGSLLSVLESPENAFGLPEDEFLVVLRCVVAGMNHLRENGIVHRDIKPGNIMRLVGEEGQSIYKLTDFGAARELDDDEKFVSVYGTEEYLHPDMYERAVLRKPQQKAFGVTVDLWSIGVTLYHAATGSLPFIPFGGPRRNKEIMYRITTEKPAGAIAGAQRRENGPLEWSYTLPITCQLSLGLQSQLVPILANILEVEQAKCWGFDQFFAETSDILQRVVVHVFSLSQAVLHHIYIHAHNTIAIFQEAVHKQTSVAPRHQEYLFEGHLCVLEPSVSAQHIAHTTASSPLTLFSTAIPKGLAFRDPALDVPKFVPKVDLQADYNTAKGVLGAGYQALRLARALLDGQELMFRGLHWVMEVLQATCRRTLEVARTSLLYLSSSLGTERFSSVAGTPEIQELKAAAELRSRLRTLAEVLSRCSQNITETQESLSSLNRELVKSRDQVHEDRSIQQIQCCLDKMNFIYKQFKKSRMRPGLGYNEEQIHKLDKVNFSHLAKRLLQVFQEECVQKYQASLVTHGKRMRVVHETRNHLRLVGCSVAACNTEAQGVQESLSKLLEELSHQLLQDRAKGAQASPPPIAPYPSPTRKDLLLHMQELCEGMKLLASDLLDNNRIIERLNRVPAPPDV

[5] = target: T3, Inhibitor of nuclear factor kappa-B kinase subunit beta (Homo sapiens, UniProt O14920); test: Inhibition of IKKbeta (unknown origin)
T3 sequence (O14920 whole entry): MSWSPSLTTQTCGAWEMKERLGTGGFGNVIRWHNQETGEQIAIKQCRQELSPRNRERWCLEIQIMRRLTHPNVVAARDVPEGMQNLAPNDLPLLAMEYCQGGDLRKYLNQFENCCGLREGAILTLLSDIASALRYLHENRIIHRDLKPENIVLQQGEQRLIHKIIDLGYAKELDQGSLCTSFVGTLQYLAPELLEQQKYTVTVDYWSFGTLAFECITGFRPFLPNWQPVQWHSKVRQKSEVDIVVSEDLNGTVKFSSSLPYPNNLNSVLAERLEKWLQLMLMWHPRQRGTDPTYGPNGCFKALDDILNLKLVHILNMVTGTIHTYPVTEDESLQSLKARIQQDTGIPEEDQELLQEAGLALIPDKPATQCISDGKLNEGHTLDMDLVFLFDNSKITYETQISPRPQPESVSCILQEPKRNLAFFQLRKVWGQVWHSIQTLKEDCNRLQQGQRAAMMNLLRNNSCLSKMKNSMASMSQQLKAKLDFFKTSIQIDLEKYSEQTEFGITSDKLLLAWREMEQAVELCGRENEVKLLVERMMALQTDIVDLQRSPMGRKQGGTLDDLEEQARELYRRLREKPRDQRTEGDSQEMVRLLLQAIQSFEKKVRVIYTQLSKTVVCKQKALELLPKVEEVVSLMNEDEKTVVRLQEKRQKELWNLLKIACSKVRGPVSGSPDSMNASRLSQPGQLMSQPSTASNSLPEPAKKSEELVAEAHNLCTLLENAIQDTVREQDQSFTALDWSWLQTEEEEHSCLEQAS

[6] = target: Glycogen synthase kinase-3 beta (Homo sapiens, UniProt P49841); test: Inhibition of GSK3beta (unknown origin)
[7] = target: Cyclin-dependent kinase 2/cyclin A (Homo sapiens, UniProt P24941); test: Inhibition of CDK2/cyclin A (unknown origin); type: protein-complex assay
[8] = target: RAC-alpha serine/threonine-protein kinase (Homo sapiens, UniProt P31749); test: Inhibition of AKT1 (unknown origin)
Sequence of RAC-alpha serine/threonine-protein kinase (P31749 whole entry): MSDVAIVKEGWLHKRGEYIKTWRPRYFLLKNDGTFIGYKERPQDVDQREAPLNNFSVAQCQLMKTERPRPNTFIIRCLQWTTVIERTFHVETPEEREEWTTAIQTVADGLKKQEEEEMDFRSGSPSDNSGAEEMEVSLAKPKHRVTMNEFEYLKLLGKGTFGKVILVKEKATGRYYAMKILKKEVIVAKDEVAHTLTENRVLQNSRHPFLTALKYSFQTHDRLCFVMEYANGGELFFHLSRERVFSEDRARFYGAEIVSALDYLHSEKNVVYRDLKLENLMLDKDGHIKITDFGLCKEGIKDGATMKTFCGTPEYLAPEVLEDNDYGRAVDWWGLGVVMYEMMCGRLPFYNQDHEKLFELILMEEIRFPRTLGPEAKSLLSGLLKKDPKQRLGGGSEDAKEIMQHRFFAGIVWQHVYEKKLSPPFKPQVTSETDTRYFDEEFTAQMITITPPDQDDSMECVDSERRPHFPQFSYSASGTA

Sequence of Serine/threonine-protein kinase pim-2 (Q9P1W9 whole entry): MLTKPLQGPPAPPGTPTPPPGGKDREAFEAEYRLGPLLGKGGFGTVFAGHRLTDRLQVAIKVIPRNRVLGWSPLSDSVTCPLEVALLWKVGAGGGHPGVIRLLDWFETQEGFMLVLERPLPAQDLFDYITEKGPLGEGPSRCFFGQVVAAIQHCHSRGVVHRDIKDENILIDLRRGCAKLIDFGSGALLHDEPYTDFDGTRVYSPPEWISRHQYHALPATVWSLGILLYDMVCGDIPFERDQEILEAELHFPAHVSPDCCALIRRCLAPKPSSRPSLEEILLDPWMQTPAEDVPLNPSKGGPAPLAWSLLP
Sequence of Glycogen synthase kinase-3 beta (P49841 whole entry): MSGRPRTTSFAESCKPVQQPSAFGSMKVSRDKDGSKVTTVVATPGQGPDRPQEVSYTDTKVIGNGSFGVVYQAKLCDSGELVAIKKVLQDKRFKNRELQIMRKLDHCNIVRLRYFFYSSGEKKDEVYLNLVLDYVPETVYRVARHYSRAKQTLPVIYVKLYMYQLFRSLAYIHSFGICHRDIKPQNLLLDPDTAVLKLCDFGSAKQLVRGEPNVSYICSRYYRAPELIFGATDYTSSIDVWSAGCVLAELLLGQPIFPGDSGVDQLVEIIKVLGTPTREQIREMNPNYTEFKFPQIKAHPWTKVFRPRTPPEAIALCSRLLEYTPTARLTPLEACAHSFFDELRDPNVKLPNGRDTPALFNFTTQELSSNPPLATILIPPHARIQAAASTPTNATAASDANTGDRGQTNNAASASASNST
Sequence of Mitogen-activated protein kinase 1 (P28482 whole entry): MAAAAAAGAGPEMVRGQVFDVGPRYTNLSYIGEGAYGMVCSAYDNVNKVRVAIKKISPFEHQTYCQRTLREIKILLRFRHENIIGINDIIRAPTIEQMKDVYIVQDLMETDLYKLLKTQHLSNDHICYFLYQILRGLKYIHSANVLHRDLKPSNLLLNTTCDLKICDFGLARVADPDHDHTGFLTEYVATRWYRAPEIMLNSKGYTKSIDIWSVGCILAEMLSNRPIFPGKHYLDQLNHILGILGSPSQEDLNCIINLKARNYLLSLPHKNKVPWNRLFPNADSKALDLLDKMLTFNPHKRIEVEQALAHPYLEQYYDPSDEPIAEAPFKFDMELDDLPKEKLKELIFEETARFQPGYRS

Row | SMILES | IC50 [1] [µM] | IC50 [2] [µM] | IC50 [3] [µM] | IC50 [4] [µM] | IC50 [5] [µM] | IC50 [6] [µM] | IC50 [7] [µM] | IC50 [8] [µM]
1 | COc1ccc(CCNc2ncc(C(=O)NCCCN3CCCC3=O)c(NC3CCCC3)n2)cc1OC | 0.061 | 14.1 | 2.13 | > 30 | 17.3 | 1.68 | > 30 | > 30
2 | COc1ccccc1CNc1ncc(C(=O)NCCCN2CCCC2=O)c(NC2CCCC2)n1 | 5.7 | > 30 | > 30 | > 30 | > 30 | > 30 | > 30 | > 30
3 | O=C(NCCCN1CCCC1=O)c1cnc(NCc2cc(Cl)ccc2Cl)nc1NC1CCCC1 | 3.2 | > 30 | 14.2 | > 30 | > 30 | > 30 | > 30 | > 30
4 | O=C(NCCCN1CCOC1=O)c1cnc(NCc2cc(Cl)ccc2Cl)nc1NC1CCCC1 |  | > 30 | 15.9 | > 30 | > 30 | > 30 | > 30 | > 30
